{"source": "patent US11413267B2", "about": "“Methods and compositions for inhibition of ATR and FANCD2 activation” (priority 2012, dated 2022)", "key": {"[1]": {"test_system": "ATR-dependent Chk1 phosphorylation", "assay": "Immunoblot of DNA damage-induced Chk1 phosphorylation", "assay_type": "cell-based, human", "settings": "after H2O2 damage", "excerpt": "(§1) We hypothesized that genes with functions associated with DNA damage checkpoints and/or DNA repair might be targeted by benzopyran-4-one derivatives. To test this hypothesis, we assessed the effects of benzopyran-4-one derivatives on DDR induced by H2O2. […] In response to DNA double-strand breaks (DSBs), FANCD2 is known to be monoubiquitinated on K561 (FANCD2-Ub) in an ATR-dependent manner to stimulate repair (Andreassen P R, et al. Genes Dev 2004).\n(§2) To elucidate the specificity of the benzopyran-4-one derivatives inhibition on ATR-mediated signaling, we compared the change between cells treated with benzopyran-4-one derivatives or the ATM-specific inhibitor KU55933 before the induction of DDR.\n(§3) MDA-MB-231 (breast adenocarcinoma; ATCC HTB-26, BCRC 60425) and A549 (lung adenocarcinoma; ATCC CCL-185, BCRC 60074) human cell lines were purchased from Bioresource Collection and Research Center (BCRC, Hsinchu, Taiwan), and were authenticated by American Type Culture Collection (ATCC, Manassas, Va.). U2OS (osteosarcoma), HeLa (cervical adenocarcinoma), and HEK 293T (embryonic kidney cells) human cell lines were provided by Dr. Sheau-Yann Shieh (Institute of Molecular Biology, Academia Sinica, Taipei, Taiwan). Cells were maintained in Dulbecco's modified Eagle's medium (DMEM, Sigma-Aldrich) supplemented with 10% fetal bovine serum (FBS) (Gibco). […] For UV irradiation treatment, the cells were irradiated for 10 J/m^2 by a cross-linker (UVP) 1 h prior to analysis.\n(§4) Cell lysate preparations, gel electrophoresis, and immunoblotting were performed as previously described (23). The binding of primary antibodies were detected by horseradish peroxidase-coupled secondary antibodies (Jackson ImmunoResearch) followed by enhanced chemiluminescence (ECL) (Millipore). The images of non-saturated bands were captured using a luminescent image analyzer (LAS-4000 mini; Fujifilm). The antibodies used in this study are listed in supplementary materials."}, "MDA-MB-231 cells": {"test_system": "MDA-MB-231 cells", "assay": "Mitotic entry assay (phospho-histone H3 Ser10, nocodazole trap, flow cytometry)", "assay_type": "cell-based, human", "excerpt": "Of these, the G2/M checkpoint involves ATM and ATR in collaboration, whereas the S/M checkpoint is mediated solely by ATR. To maintain genetic integrity, ATR can prevent premature mitotic entry in the event of incomplete DNA replication or unrepaired DNA damage. In order to evaluate the effect of benzopyran-4-one derivatives on these ATR-associated DNA damage checkpoints, we observed the effect of benzopyran-4-one derivatives on mitotic entry following hydroxyurea or cisplatin treatment.\n(§5) DNA replication was measured using a Click-it EdU assay kit, which is based on incorporation of the thymidine analogue 5-ethynyl-2′-deoxyuridine (EdU) into DNA during replication (Invitrogen). Then, 10 μM EdU was added to the cell culture medium 30 min before the cells were harvested and fixed in 4% paraformaldehyde. After cycloaddition, EdU was detected with Alexa Fluor 647 using click reaction catalyzed by Cu (II), and the DNA content was stained by CellCycle 405-blue. To assay the mitotic entry, cells were treated with the indicated drugs and trapped in 70 nM nocodazole for 16 h, and antibodies against phospho-histone H3 Ser10 and PI were used to stain the mitotic cells and DNA content, respectively. An FITC Annexin V apoptosis detection kit was used to characterize the phenotype of cell death based on PI and Annexin V double staining (BD Pharmingen, San Diego, Calif.). Fluorescence-labeled cells were subsequently analyzed by the BD LSR II flow cytometer with a suitable selection of excitation and emission wavelengths. The percentages of different fluorescent cells were analyzed using WinMDI Ver. 2.9."}, "DNA replication": {"test_system": "DNA replication", "assay": "EdU incorporation assay of DNA replication", "assay_type": "cell-based", "settings": "10 μM", "method": "as §5, with “5-ethynyl-2'-deoxyuridine” for “5-ethynyl-2′-deoxyuridine”, “To assay the mitotic entry, cells were treated with the indicated drugs and trapped in 70 nM nocodazole for 16 h, and antibodies against phospho-histone H3 Ser10 and PI were used to stain the mitotic cells and DNA content, respectively.” left out"}, "[2]": {"test_system": "ATM-mediated Chk2 phosphorylation", "assay": "Immunoblot of DNA damage-induced Chk2 phosphorylation / ATM autophosphorylation", "assay_type": "cell-based, human", "settings": "after H2O2 damage", "excerpt": "as §1, §2, §3, §4"}, "CHO cells": {"test_system": "CHO cells", "assay": "In vitro chromosome aberration test", "assay_type": "cell-based, Chinese Hamster", "settings": "2.00 μM", "method": "To test this hypothesis, we investigated the cytogenetic effect of Protoapigenone (I-1) on CHO cells (FIG. 1).\nIn brief, 5×10^5 Chinese Hamster Ovary (CHO) cells were seeded in 60-mm dishes 1 d before the experiment. Protoapigenone (I-1)-induced structural chromosomal changes after 20 h were compared with that of the cells cultured in 2 μM mitomycin C. At 18 h after Protoapigenone (I-1), 0.1 μg/mL colchicine was added for 2 h, and metaphase cells were collected by shaking them off the dishes. Mitotic cells were treated with 0.5% KCl for 10 min and fixed with a 3:1 mixture of methanol: glacial acetic acid. The cells were then spread on slides for chromosome staining with 5% Giemsa solution. We then analyzed the chromosome structure of 200 well-spread metaphase cells (100 metaphase cells/experiment) under a 100× oil immersion objective."}, "[3]": {"settings": "DNA-damaging agent alone (Control group column)"}}, "data": [{"smiles": "O=c1cc(-c2cccc3c2Sc2ccccc2S3)oc(N2CCOCC2)c1", "note": "[KU55933]", "values": [{"measurement": "Effect on ATR-mediated Chk1 phosphorylation", "setting": "[1]", "result": "small"}, {"measurement": "Percentage of mitotic cells in cisplatin-treated cells (G2/M checkpoint), in words", "setting": "MDA-MB-231 cells; cisplatin-treated cells", "result": "increased the percentage of mitotic cells"}, {"measurement": "The percentage of mitotic cells", "setting": "MDA-MB-231 cells; compound alone (Control group, no DNA-damaging agent)", "result": "20.29 ± 1.48", "unit": "%"}, {"measurement": "The percentage of mitotic cells", "setting": "MDA-MB-231 cells; compound with Cisplatin (G2/M checkpoint)", "result": "9.70 ± 0.25", "unit": "%"}, {"measurement": "The percentage of mitotic cells", "setting": "MDA-MB-231 cells; compound with Hydroxyurea (S/M checkpoint)", "result": "11.19 ± 0.76", "unit": "%"}, {"measurement": "Percentage of EdU incorporation compared with control group", "setting": "DNA replication", "result": "not"}, {"measurement": "ATM-mediated Chk2 phosphorylation", "setting": "[2]", "result": "strongly inhibited"}]}, {"smiles": "CO[C@@]12[C@H](COC(N)=O)C3=C(C(=O)C(C)=C(N)C3=O)N1C[C@@H]1N[C@@H]12", "note": "[Mitomycin C, reference compound]", "values": [{"measurement": "Chromatid break (No.)", "setting": "CHO cells; 200 cells per treatment", "result": 2, "unit": "No."}, {"measurement": "Chromatid deletion", "setting": "CHO cells; 200 cells per treatment", "result": 3, "unit": "No."}, {"measurement": "Complex rerrangement", "setting": "CHO cells; 200 cells per treatment", "result": 2, "unit": "No."}, {"measurement": "Dicentric", "setting": "CHO cells; 200 cells per treatment", "result": 1, "unit": "No."}, {"measurement": "Polyploid", "setting": "CHO cells; 200 cells per treatment", "result": 0, "unit": "No."}, {"measurement": "Pulverized cell", "setting": "CHO cells; 200 cells per treatment", "result": 5, "unit": "No."}, {"measurement": "Quadriradial", "setting": "CHO cells; 200 cells per treatment", "result": 29, "unit": "No."}, {"measurement": "Ring", "setting": "CHO cells; 200 cells per treatment", "result": 0, "unit": "No."}, {"measurement": "Triradial", "setting": "CHO cells; 200 cells per treatment", "result": 42, "unit": "No."}, {"measurement": "Average aberrant metaphases (%)", "setting": "CHO cells; * significant vs. control by t-test", "result": "42.0 * %"}]}, {"smiles": "NC(=O)NO", "note": "[Hydroxyurea]", "values": [{"measurement": "The percentage of mitotic cells", "setting": "MDA-MB-231 cells; [3]", "result": "4.46 ± 0.67", "unit": "%"}]}, {"smiles": "N.N.[Cl][Pt][Cl]", "note": "[Cisplatin]", "values": [{"measurement": "The percentage of mitotic cells", "setting": "MDA-MB-231 cells; [3]", "result": "5.35 ± 0.07", "unit": "%"}]}]}
